In paper PMC8241160, “Enhanced oral bioavailability and anticancer efficacy of fisetin by encapsulating as inclusion complex with HPβCD in polymeric nanoparticles” (Drug Delivery, 2017):
≈ marks a conversion by molar mass, not a printed value.

How the values were obtained:
[1] = Apparent solubility of FST and FHIC in aqueous phase; format: physicochemical; details: PBS
Method: For the determination of apparent solubility, native FST and FHIC were added into 10 ml of PBS and stirred in an orbital shaker for 24 h (Madan et al., [2012]). The solutions were centrifuged (10 000 rpm for 15 min), supernatant was collected and filtered through 0.22 μm filter. After appropriate dilution, FST absorbance was measured using UV-visible spectroscopy at 360 nm. The calibration curve was prepared in the range of 1–20 μg/ml. The observed regression equation was Y = 0.054X + 0.058 with r^2=0.997.

[2] = Encapsulation efficiency (indirect method); format: physicochemical; details: FST encapsulated in PLGA nanoparticles
Method: The amount of drug loaded in the nanoparticles was determined by indirect method. Nanoparticle dispersion was centrifuged using Centrisart tubes (Sartorius, Bohemia, NY) and supernatant was analyzed for FST content using UV-visible spectrophotometry at 360 nm. The EE was calculated as follows: EE (%) = {(DT – DS)/DT} × 100, where DT=total FST added; DS=FST in the supernatant.

[3] = In vitro drug release (dialysis bag method); format: physicochemical; details: 8 h, PBS pH 7.4 with 0.1% v/v Tween 80, 37 °C
Method: Dialysis bag method was used to carry out the in vitro drug release studies. FST or FHIC-PNP dispersion equivalent to 1 mg of FST, was introduced into the dialysis bag (12 000–14 000 molecular weight cut off, Sigma Aldrich, St. Louis, MO) and placed in 100 ml of phosphate buffer saline pH 7.4 (PBS) containing 0.1%v/v Tween 80 as the release media and kept for stirring at 37 °C at 100 rpm. Samples were withdrawn at different time intervals and replaced with equal volume of media to maintain the sink condition. The collected samples were analyzed for amount of FST content by UV-visible spectrophotometry at 360 nm.

[4] = test system: MCF-7 human breast adenocarcinoma cells; assay: Cell viability assay (MTT assay); format: cell-based; details: MCF7, MCF-7, 24 h of treatment
Method: The cell viability assay (MTT assay) was performed in MCF-7 human breast adenocarcinoma cells. Cells were seeded at a density of 7 × 10^3 in DMEM medium supplemented with 10% FBS in a 96-well plate and incubated for 24 h at 37 °C in a humidified 5% CO2. The cells were exposed to different concentrations of FST, FHIC and FHIC-PNP for 24 h in order to ascertain the concentration at which 50% of the cells are viable. A volume of 10 μl of MTT solution (5 mg/ml in PBS) was added to each well. The plate was incubated for 4 h and thereafter the contents in the wells were replaced with 100 μl DMSO and again incubated for 10 min. The optical density was measured using a microplate reader (BioTek Instruments, Synergy 4, Winooski, VT) at 570 nm. The cytotoxicity of blank PNP was also studied to determine the toxicity of the nanocarrier system.

MCF-7 cells = assay: Quantitative apoptosis by flow cytometer (Annexin V-FITC/PI); format: cell-based, human; details: MCF-7, equivalent to 20 μg/ml FST, 24 h
Method: For the quantitative analysis of apoptosis, cells were treated with FST, FHIC or FHIC-PNP (equivalent to 20 μg/ml FST) for 24 h. Cells were trypsinized, centrifuged at 1200 rpm for 5 min, washed three times with ice-cold PBS and were re-suspended in 500 μl of binding buffer. Thereafter, 5 μl of Annexin V-FITC and 10 μl of PI were added and mixed for 15 min in the dark. The stained cells were analyzed using a flow cytometer (FACS Calibur, BD, San Jose, CA). Data analysis was performed using Cell-Quest software (Becton Dickinson, Franklin Lakes, NJ).

[5] = Pharmacokinetic study after oral administration; format: in vivo; details: 10 mg/kg FST equivalent, C57BL6 mice, plasma
Method: The animal experiments were performed in accordance with the Committee for the Purpose of Control and Supervision of Experiments on Animals (CPCSEA) guidelines after approval from Institutional Animal Ethics Committee (IAEC) of the institution (Approval no. IICT/39/2016). Female C57BL6 mice weighing from 18 to 22 g were kept for overnight fasting before the start of the experiment and allowed free access of water ad libitum.
C57BL6 mice were divided into two groups containing 27 animals in each. Animals in group I received pure FST (as 1% gum acacia suspension) orally at a dose of 10 mg/kg body weight and the animals in group II received FHIC-PNP (FST equivalent to 10 mg/kg) orally. At predetermined time intervals, blood samples were collected from retro-orbital plexus into centrifuge tube containing EDTA. Samples were centrifuged at 4000 rpm for 15 min and supernatant (plasma) was collected and stored at −80 °C for further analysis by LC/MS.
Plasma samples were extracted by solvent mixture composed of chloroform and acetonitrile (1:1). The mixture was kept in shaker for 10 min and the supernatant layer was transferred into another Eppendorf tubes. Evaporation of organic solvent was done on ScanVac speed vacuum concentrator and 100 μl of acetonitrile was added and vortexed. A volume of 2 μl aliquots of sample solution were injected into LC–MS/MS for analysis. The linearity of the method was evaluated by analyzing spiked calibration samples using six calibration standards over a calibration range of 0.5–800 ng/ml in mice plasma.
Analysis was carried out on U-HPLC instrument (Agilent Technologies, Santa Clara, CA) equipped with a quaternary pump, a degasser, a diode array detector, an auto sampler and a column compartment. Mass spectrometric analysis was carried out on an Agilent 6420 triple quadrupole (Agilent Technologies, Santa Clara, CA) equipped with electrospray ionization (ESI) source. The data acquisition was under the control of Mass Hunter software.
FST and baicalein, an internal standard (IS), were separated on Agilent Eclipse plus C18 (2.1 mm × 50 mm, 1.8 μm) at constant temperature of 40 °C. The initial mobile phase consisted of 10 mM of ammonium formate (pH 3.5) and acetonitrile with gradient elution at a flow rate of 0.4 ml/min. Elution was in a gradient, the acetonitrile was kept constant at 2% in 0.5 min, and then increased to 98% in 1.5 min and maintained at 98% for another 2 min, then decreased to 2% in 3.8 min and maintained for 2.2 min. The total run time of the analysis was 5 min. After each injection, the sample manager was cleaned by a needle wash process with methanol–water (70/30 v/v). The typical operating source condition for MS scan in negative ion ESI mode were optimized as follow: collision energy 33 eV, cell accelerator voltage 7 eV, fragmentor 135, dwell time 200 ms, gas temperature 280 °C, gas flow 10 l/min and nebulizer 50 psi. The MRM modes of ions with m/z 284.8 → 134.8 for FST and m/z 268.8 → 166.8 for IS (baicalein) were utilized for quantitative analysis.

[6] = parameters: method as in Bothiraja et al., 2014; details: ref Bothiraja et al., 2014; cited from earlier work
[7] = parameters: method as in Seguin et al., 2013; details: ref Seguin et al., 2013; cited from earlier work

Q: Which results are given for O=c1c(O)c(-c2ccc(O)c(O)c2)oc2cc(O)ccc12 [FST, 2-(3,4-dihydroxyphenyl)-3,7-dihydroxychromen-4-one]?
A: solubility at 24 h [1]: 5.25 µg/mL (≈ 18.3 µM); encapsulation/entrapment efficiency (EE) ([2]; listed as native FST): 47%; encapsulation/entrapment efficiency (EE) ([2]; listed as pure FST): 47.3%; FST released in vitro [3]: about 93%; IC50 [4]: 77.8 ± 2.12 µg/mL; apoptosis induction (MCF-7 cells): 21.8%; Cl [5]: 2022.59 ± 0.02 mL/h; AUC(0-inf) ([5]; female, mouse): 100 ± 2.91 ng·h/mL; AUC(0-t) ([5]; female, mouse): 80.4 ± 3.61 ng·h/mL; Cmax ([5]; female, mouse): 69.3 ± 4.16 ng/mL; MRT ([5]; female, mouse): 3.82 ± 2.15 h; Tmax ([5]; female, mouse): 15 ± 72 min; half-life ([5]; female, mouse): 196 ± 54 min; aqueous solubility [6]: 10.45 µg/mL (≈ 36.5 µM); oral bioavailability [7]: 44.1%
